Measurements published in US7507540B1, “Catalytic anti-factor VIII allo-antibodies” (Institut National de la Sante et de la Recherche Medicale …, priority 1999, dated 2009).
Non-standard residues stand in square brackets, D forms with d. Residues, ends and D or L forms follow the SMILES beside them. *: point of attachment. Sta = CC(C)C[C@H](N)[C@@H](O)CC(=O)O; Isovaleryl = CC(C)CC(=O)*

Test system: proteolytic activity of anti-Factor VIII IgG
Assay: Inhibition of anti-Factor VIII IgG-catalysed hydrolysis of [125I]-Factor VIII
Type: biochemical, human
Settings: for inhibition of proteolytic activity of anti-Factor VIII IgG: IgG of patients Bor and Wal
Description: Commercial human recombinant Factor VIII was labelled with ^125I to a specific activity of 11.6 nCi/μg, by using the iodogen method. [^125I]-Factor VIII (1.5 to 150 ng) was incubated in 50 μl of 50 mM tris-HCI pH 7.7, 100 mM glycine, 0.025% Tween-20 and 0.02% NaN3 alone or with 17 to 1667 nM of immuno-purified anti-Factor VIII IgG for 5 min to 10 hours at 38° C. Human monoclonal anti-digoxin IgG M061 (mAb) and normal unfractionated human polyclonal IgG (IVIg, Sandoglobulin®), were used as negative controls. Samples were mixed 1:1 with Laemmli's buffer without mercaptoethanol, and were subjected to SDS electrophoresis without boiling,. Samples were run in parallel on 7.5% and 15% SDS-PAGE under non-reducing conditions, after loading 20 μl of each sample per lane. Migration was performed at room temperature using a mini-PROTEAN II system at 25 mA/gel, until the dye front reached the bottom of the gel. […] Following autoradiography, the Factor VIII bands of apparent molecular weight 200 and 300 kDa that are consistently hydrolysed by anti-Factor VIII IgG, were scanned so as to allow for the calculation of the rate of hydrolysis of labelled Factor VIII.
Hydrolysis of [^125I]-Factor VIII by affinity-purified anti-Factor VIII IgG antibodies of haemophilia A patients with inhibitor in the presence of Pefabloc®. [^125I]-Factor VIII (150 ng) was incubated alone, with 50 μg/ml of immunopurified anti-Factor VIII IgG of patient Wal or in the presence of both anti-Factor VIII IgG and 4 mM of the serine protease inhibitor Pefabloc® (Boehringer) for 5 h at 38° C. Factor VIII was then analysed by 7.5% SDS-PAGE under non-reducing conditions. Following autoradiography, the Factor VIII bands of apparent molecular weight 200 and 300 kDa that are consistently hydrolysed by anti-FVIII IgG, were scanned so as to allow for the calculation of the % of hydrolysis of labelled […].

For `CC(C)C[C@H](NC(=O)[C@H]1O[C@@H]1C(=O)O)C(=O)NCCCCN=C(N)N` [E-64], the “inhibition of proteolytic activity of anti-Factor VIII IgG” value (from here on “inhibition … of anti-Factor VIII IgG”) (E-64 28 μM) was “did not result in inhibition of proteolytic activity”.

`O=C(O)CN(CCN(CC(=O)O)CC(=O)O)CC(=O)O` [EDTA] was tested, and the “inhibition … of anti-Factor VIII IgG” value (EDTA 1.3 μM) was “did not result in inhibition of proteolytic activity”.

For `Cl.NCCc1ccc(S(=O)(=O)F)cc1` [Pefabloc, 4-(2-aminoethyl)benzenesulphonyl fluoride hydrochloride], the “inhibition of proteolysis of radio-labelled Factor VIII by anti-Factor VIII allo-antibodies of patient Wal” value (4 mM Pefabloc, 50 μg/ml IgG of patient Wal, 5 h at 38° C.) was “about 62%”.

In the case of `CC(=O)N[C@@H](CC(C)C)C(=O)N[C@@H](CC(C)C)C(=O)N[C@H](C=O)CCCNC(=N)N` [leupeptin], the “inhibition … of anti-Factor VIII IgG” value (leupeptin 10 μM) was “did not result in inhibition of proteolytic activity”.

For `CC(C)CC(=O)N[C@H](C(=O)N[C@H](C(=O)N[C@@H](CC(C)C)[C@@H](O)CC(=O)N[C@@H](C)C(=O)N[C@@H](CC(C)C)[C@@H](O)CC(=O)O)C(C)C)C(C)C` [pepstatin] (Isovaleryl-VV[Sta]A[Sta]-OH), the “inhibition … of anti-Factor VIII IgG” value (pepstatin 10 μM) was “did not result in inhibition of proteolytic activity”.

With aprotinin the “inhibition … of anti-Factor VIII IgG” value (aprotinin 0.15 μM) was “did not result in inhibition of proteolytic activity”.

With vWF: purified von Willebrand Factor the “partial inhibition of hydrolysis of Factor VIII by anti-Factor VIII IgG” value (30 μg/ml of vWF versus 300 ng/ml of Factor VIII) was 36.9%.
